Results reported in patent US20150231236A1, “METHODS FOR TREATING PATIENTS WITH HYPERCHOLESTEROLEMIA THAT IS NOT ADEQUATELY CONTROLLED BY MODERATE-DOSE STATIN THERAPY” (Regeneron Pharmaceuticals, Inc., priority 2014, published 2015).

How the values were obtained:
[1] = system: patients with hypercholesterolemia at high CV risk not adequately controlled with rosuvastatin (10 mg or 20 mg); experiment: Example 3: safety, treatment-emergent adverse events in pooled treatment groups; details: mAb316P group
[2] = system: patients with hypercholesterolemia at high CV risk not adequately controlled with rosuvastatin (10 mg or 20 mg); experiment: Example 3: randomized, double-blind trial, lipid efficacy of mAb316P add-on to rosuvastatin vs EZE add-on or rosuvastatin dose doubling; assay type: in vivo, human; details: for Proportion of Patients Reaching LDL-C goal (%): week 24, LDL-C <70 mg/dL very high risk or <100 mg/dL high risk
[3] = ITT Population, Comparison 1: mAb316P + rosuvastatin 10 mg arm vs. rosuvastatin 20 mg arm
[4] = ITT Population, Comparison 2: mAb316P + rosuvastatin 10 mg arm vs. EZE + rosuvastatin 10 mg arm
[5] = ITT Population, Comparison 3: mAb316P + rosuvastatin 20 mg arm vs. rosuvastatin 40 mg arm
[6] = ITT Population, Comparison 4: mAb316P + rosuvastatin 20 mg arm vs. EZE + rosuvastatin 20 mg arm
[7] = mITT Population, Comparison 1: mAb316P + rosuvastatin 10 mg arm vs. rosuvastatin 20 mg arm
[8] = mITT Population, Comparison 2: mAb316P + rosuvastatin 10 mg arm vs. EZE + rosuvastatin 10 mg arm
[9] = mITT Population, Comparison 3: mAb316P + rosuvastatin 20 mg arm vs. rosuvastatin 40 mg arm
[10] = mITT Population, Comparison 4: mAb316P + rosuvastatin 20 mg arm vs. EZE + rosuvastatin 20 mg arm

Which TEAE influenza [1] does the source give for “mAb316P: human anti-PCSK9 antibody; heavy chain SEQ ID NO:5, light chain SEQ ID NO:9” here?
The TEAE influenza was 4 patients.

And the “TEAE upper respiratory tract infection” value [1]?
The value was 6 patients.

And the “TEAE urinary tract infection” value [1]?
Its value is 4 patients.

What about the “Proportion of Patients Reaching LDL-C goal (%)” value ([2]; Baseline Rosuvastatin 10 mg) of the same substance?
Its value is 84.9%.

What about the “Proportion of Patients Reaching LDL-C goal (%)” value ([2]; Baseline Rosuvastatin 20 mg) of the same substance?
The value was 66.7%.

What about the “LS Mean Difference, percent change from baseline of Apo B to week 24” value [2, 3] of the same substance?
Its value is −29.2%.

And the “LS Mean Difference, percent change from baseline of Apo-B to week 12” value [2, 3]?
The value was −28.1%.

And the “LS Mean Difference, percent change from baseline of HDL-C at week 24” value (shortened to “LS Mean Difference, percent change … at week 24”) [2, 3]?
The value was 7.4%.

And the “LS Mean Difference, percent change from baseline of Lp(a) to week 24” value [2, 3]?
The value was −23.9%.

And the “LS Mean Difference, percent change from baseline of Non-HDL-C to week 12” value [2, 3]?
Its value is −29.5%.

What about the “LS Mean Difference, percent change from baseline of Total-C to week 12” value [2, 3] of the same substance?
Its value is −20.1%.

What about the “LS Mean Difference, percent change from baseline of Total-C to week 24” value [2, 3] of the same substance?
Its value is −20.6%.

And the “LS Mean Difference, percent change from baseline of calculated LDL-C to week 12” value [2, 3]?
Its value is −32.5%.

And the “LS Mean Difference, percent change from baseline of calculated LDL-C to week 24” value [2, 3]?
The value was −34.2%.

What about the “LS Mean Difference, percent change from baseline of non-HDL-C to week 24” value [2, 3] of the same substance?
The value was −31.4%.

And the “Odds Ratio, proportion of patients reaching calculated LDL-C < 70 mg/dL (1.81 mmol/L) at Week 24” value [2, 3]?
The value was 18.6.

What about the “Odds Ratio, proportion of very high CV risk patients reaching calculated LDL-C < 70 mg/dL or high CV risk patients reaching calculated LDL-C < 100 mg/dL at Week 24” value [2, 3] of the same substance?
The value was 10.2.

What about the “LS Mean Difference, percent change from baseline of Apo B to week 24” value [2, 4] of the same substance?
Its value is −26.8%.

What about the “LS Mean Difference, percent change from baseline of Apo-B to week 12” value [2, 4] of the same substance?
Its value is −24.0%.

What about the “LS Mean Difference, percent change … at week 24” value [2, 4] of the same substance?
Its value is 5.1%.

And the “LS Mean Difference, percent change from baseline of Lp(a) to week 24” value [2, 4]?
The value was −23.6%.

What about the “LS Mean Difference, percent change from baseline of Non-HDL-C to week 12” value [2, 4] of the same substance?
Its value is −24.9%.

And the “LS Mean Difference, percent change from baseline of Total-C to week 12” value [2, 4]?
Its value is −17.2%.

What about the “LS Mean Difference, percent change from baseline of Total-C to week 24” value [2, 4] of the same substance?
The value was −20.3%.

What about the “LS Mean Difference, percent change from baseline of calculated LDL-C to week 12” value [2, 4] of the same substance?
The value was −32.2%.

And the “LS Mean Difference, percent change from baseline of calculated LDL-C to week 24” value [2, 4]?
The value was −36.1%.

What about the “LS Mean Difference, percent change from baseline of non-HDL-C to week 24” value [2, 4] of the same substance?
The value was −29.3%.

What about the “Odds Ratio, proportion of patients reaching calculated LDL-C < 70 mg/dL (1.81 mmol/L) at Week 24” value [2, 4] of the same substance?
Its value is 11.6.

What about the “Odds Ratio, proportion of very high CV risk patients reaching calculated LDL-C < 70 mg/dL or high CV risk patients reaching calculated LDL-C < 100 mg/dL at Week 24” value [2, 4] of the same substance?
Its value is 7.8.

What about the “LS Mean Difference, percent change from baseline of Apo B to week 24” value [2, 5] of the same substance?
Its value is −18.5%.

And the “LS Mean Difference, percent change from baseline of Apo-B to week 12” value [2, 5]?
Its value is −15.3%.

And the “LS Mean Difference, percent change … at week 24” value [2, 5]?
Its value is 5.7%.

What about the “LS Mean Difference, percent change from baseline of Lp(a) to week 24” value [2, 5] of the same substance?
Its value is −17.5%.

And the “LS Mean Difference, percent change from baseline of Non-HDL-C to week 12” value [2, 5]?
The value was −11.8%.

And the “LS Mean Difference, percent change from baseline of Total-C to week 12” value [2, 5]?
The value was −5.5%.

What about the “LS Mean Difference, percent change from baseline of Total-C to week 24” value [2, 5] of the same substance?
The value was −12.1%.

And the “LS Mean Difference, percent change from baseline of calculated LDL-C to week 12” value [2, 5]?
The value was −10.2%.

And the “LS Mean Difference, percent change from baseline of calculated LDL-C to week 24” value [2, 5]?
Its value is −20.3%.

And the “LS Mean Difference, percent change from baseline of non-HDL-C to week 24” value [2, 5]?
Its value is −20.1%.

And the “Odds Ratio, proportion of patients reaching calculated LDL-C < 70 mg/dL (1.81 mmol/L) at Week 24” value [2, 5]?
Its value is 6.1.

And the “Odds Ratio, proportion of very high CV risk patients reaching calculated LDL-C < 70 mg/dL or high CV risk patients reaching calculated LDL-C < 100 mg/dL at Week 24” value [2, 5]?
The value was 4.7.

And the “LS Mean Difference, percent change from baseline of Apo B to week 24” value [2, 6]?
Its value is −17.1%.

What about the “LS Mean Difference, percent change from baseline of Apo-B to week 12” value [2, 6] of the same substance?
Its value is −14.7%.

And the “LS Mean Difference, percent change … at week 24” value [2, 6]?
The value was 9.0%.

What about the “LS Mean Difference, percent change from baseline of Lp(a) to week 24” value [2, 6] of the same substance?
Its value is −16.9%.

What about the “LS Mean Difference, percent change from baseline of Non-HDL-C to week 12” value [2, 6] of the same substance?
Its value is −11.0%.

What about the “LS Mean Difference, percent change from baseline of Total-C to week 12” value [2, 6] of the same substance?
The value was −5.5%.

And the “LS Mean Difference, percent change from baseline of Total-C to week 24” value [2, 6]?
The value was −8.2%.

What about the “LS Mean Difference, percent change from baseline of calculated LDL-C to week 12” value [2, 6] of the same substance?
The value was −12.9%.

What about the “LS Mean Difference, percent change from baseline of calculated LDL-C to week 24” value [2, 6] of the same substance?
The value was −25.3%.

What about the “LS Mean Difference, percent change from baseline of non-HDL-C to week 24” value [2, 6] of the same substance?
Its value is −18.4%.

What about the “Odds Ratio, proportion of patients reaching calculated LDL-C < 70 mg/dL (1.81 mmol/L) at Week 24” value [2, 6] of the same substance?
Its value is 2.5.

What about the “Odds Ratio, proportion of very high CV risk patients reaching calculated LDL-C < 70 mg/dL or high CV risk patients reaching calculated LDL-C < 100 mg/dL at Week 24” value [2, 6] of the same substance?
The value was 2.3.

What about the “proportion of patients who reached LDL-C level of <70 mg/dL (1.81 mmol/L) at Week 24” value ([2]; baseline rosuvastatin 10 mg regimen) of the same substance?
The value was 77.8%.

What about the “proportion of patients who reached LDL-C level of <70 mg/dL (1.81 mmol/L) at Week 24” value ([2]; baseline rosuvastatin 20 mg regimen) of the same substance?
Its value is 60.1%.

And the “LS Mean Difference, percent change from baseline of Apo B to week 24” value [2, 7]?
Its value is −30.7%.

And the “LS Mean Difference, percent change from baseline of calculated LDL-C to week 12” value [2, 7]?
Its value is −35.3%.

And the “LS Mean Difference, percent change from baseline of calculated LDL-C to week 24” value [2, 7]?
Its value is −35.2%.

And the “LS Mean Difference, percent change from baseline of non-HDL-C to week 24” value [2, 7]?
The value was −32.8%.

What about the “Odds Ratio, proportion of patients reaching calculated LDL-C < 70 mg/dL (1.81 mmol/L) at Week 24” value [2, 7] of the same substance?
The value was 20.3.

And the “Odds Ratio, proportion of very high CV risk patients reaching calculated LDL-C < 70 mg/dL or high CV risk patients reaching calculated LDL-C < 100 mg/dL at Week 24” value [2, 7]?
The value was 12.4.

What about the “LS Mean Difference, percent change from baseline of Apo B to week 24” value [2, 8] of the same substance?
Its value is −28.3%.

And the “LS Mean Difference, percent change from baseline of calculated LDL-C to week 12” value [2, 8]?
Its value is −32.3%.

And the “LS Mean Difference, percent change from baseline of calculated LDL-C to week 24” value [2, 8]?
Its value is −33.2%.

And the “LS Mean Difference, percent change from baseline of non-HDL-C to week 24” value [2, 8]?
Its value is −28.2%.

And the “Odds Ratio, proportion of patients reaching calculated LDL-C < 70 mg/dL (1.81 mmol/L) at Week 24” value [2, 8]?
Its value is 12.7.

What about the “Odds Ratio, proportion of very high CV risk patients reaching calculated LDL-C < 70 mg/dL or high CV risk patients reaching calculated LDL-C < 100 mg/dL at Week 24” value [2, 8] of the same substance?
The value was 8.9.

What about the “LS Mean Difference, percent change from baseline of Apo B to week 24” value [2, 9] of the same substance?
Its value is −17.7%.

And the “LS Mean Difference, percent change from baseline of calculated LDL-C to week 12” value [2, 9]?
The value was −12.3%.

And the “LS Mean Difference, percent change from baseline of calculated LDL-C to week 24” value [2, 9]?
Its value is −24.5%.

And the “LS Mean Difference, percent change from baseline of non-HDL-C to week 24” value [2, 9]?
The value was −20.7%.

And the “Odds Ratio, proportion of patients reaching calculated LDL-C < 70 mg/dL (1.81 mmol/L) at Week 24” value [2, 9]?
Its value is 9.0.

And the “Odds Ratio, proportion of very high CV risk patients reaching calculated LDL-C < 70 mg/dL or high CV risk patients reaching calculated LDL-C < 100 mg/dL at Week 24” value [2, 9]?
The value was 5.9.

And the “LS Mean Difference, percent change from baseline of Apo B to week 24” value [2, 10]?
Its value is −17.8%.

And the “LS Mean Difference, percent change from baseline of calculated LDL-C to week 12” value [2, 10]?
The value was −13.3%.

What about the “LS Mean Difference, percent change from baseline of calculated LDL-C to week 24” value [2, 10] of the same substance?
Its value is −24.9%.

What about the “LS Mean Difference, percent change from baseline of non-HDL-C to week 24” value [2, 10] of the same substance?
The value was −17.4%.

And the “Odds Ratio, proportion of patients reaching calculated LDL-C < 70 mg/dL (1.81 mmol/L) at Week 24” value [2, 10]?
The value was 3.4.

What about the “Odds Ratio, proportion of very high CV risk patients reaching calculated LDL-C < 70 mg/dL or high CV risk patients reaching calculated LDL-C < 100 mg/dL at Week 24” value [2, 10] of the same substance?
Its value is 2.7.
